Key:
[1] = target: Vascular endothelial growth factor receptor 2 (Homo sapiens, UniProt P35968)
SH-SY5Y = experiment: Cytotoxicity against human SH-SY5Y cells; format: functional, cell-based
IMR-32 = experiment: Cytotoxicity against human IMR32 cells; format: functional, cell-based
[2] = target: T1, ALK tyrosine kinase receptor (Homo sapiens, UniProt Q9UM73)
physchem = details: octanol/water
NCI-H3122 [3] = experiment: cells; details: Homo sapiens
NCI-H3122 [4] = experiment: Potency index, ratio of crizotinib IC50 to test compound IC50 for cytotoxicity against human NCI-H3122 cells harboring EML4-ALK E13;A20 mutant; format: functional
[5] = target: T1, ALK tyrosine kinase receptor; remark: listed apart in the source
[6] = target: Hepatocyte growth factor receptor (Homo sapiens, UniProt P08581); experiment: Inhibition of c-MET (unknown origin) by kinome scan-based assay
Sequence of Hepatocyte growth factor receptor (P08581 whole entry): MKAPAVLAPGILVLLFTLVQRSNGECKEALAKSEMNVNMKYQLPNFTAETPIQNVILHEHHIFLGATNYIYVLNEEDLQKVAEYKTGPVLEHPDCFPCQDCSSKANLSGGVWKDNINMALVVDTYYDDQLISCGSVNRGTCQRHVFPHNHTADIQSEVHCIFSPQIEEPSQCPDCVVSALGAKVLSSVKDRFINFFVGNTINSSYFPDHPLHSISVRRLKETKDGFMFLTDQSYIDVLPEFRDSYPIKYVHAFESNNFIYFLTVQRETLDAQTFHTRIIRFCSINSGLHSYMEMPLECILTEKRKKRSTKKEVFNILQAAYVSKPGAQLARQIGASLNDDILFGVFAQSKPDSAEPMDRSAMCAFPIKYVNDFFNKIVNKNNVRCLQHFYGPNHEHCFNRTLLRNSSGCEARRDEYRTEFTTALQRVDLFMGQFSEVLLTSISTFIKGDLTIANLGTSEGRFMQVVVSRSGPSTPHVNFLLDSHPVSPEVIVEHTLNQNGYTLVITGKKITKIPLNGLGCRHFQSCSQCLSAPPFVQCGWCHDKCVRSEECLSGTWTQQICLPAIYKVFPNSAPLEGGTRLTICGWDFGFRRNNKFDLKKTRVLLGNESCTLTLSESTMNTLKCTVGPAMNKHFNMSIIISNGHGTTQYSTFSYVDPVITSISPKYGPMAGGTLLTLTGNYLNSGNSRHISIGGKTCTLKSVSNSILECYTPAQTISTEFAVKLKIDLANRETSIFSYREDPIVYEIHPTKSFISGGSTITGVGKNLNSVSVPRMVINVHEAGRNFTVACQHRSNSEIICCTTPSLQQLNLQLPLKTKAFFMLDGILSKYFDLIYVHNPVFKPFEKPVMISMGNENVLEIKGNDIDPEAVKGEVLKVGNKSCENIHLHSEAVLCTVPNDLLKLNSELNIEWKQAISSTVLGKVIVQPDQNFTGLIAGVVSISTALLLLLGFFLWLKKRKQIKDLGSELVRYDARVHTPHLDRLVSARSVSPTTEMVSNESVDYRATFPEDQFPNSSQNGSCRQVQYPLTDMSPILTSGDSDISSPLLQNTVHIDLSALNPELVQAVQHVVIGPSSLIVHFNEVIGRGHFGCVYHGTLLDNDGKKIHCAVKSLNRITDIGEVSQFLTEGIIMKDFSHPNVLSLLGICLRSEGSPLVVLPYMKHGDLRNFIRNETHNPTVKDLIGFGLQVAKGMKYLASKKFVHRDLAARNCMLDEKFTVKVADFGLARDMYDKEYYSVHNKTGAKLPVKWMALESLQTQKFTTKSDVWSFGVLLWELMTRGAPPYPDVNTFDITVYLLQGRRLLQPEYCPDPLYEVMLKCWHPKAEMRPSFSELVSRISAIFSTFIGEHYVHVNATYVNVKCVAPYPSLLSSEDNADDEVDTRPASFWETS

NCI-H3122 [7] = experiment: Cytotoxicity against human NCI-H3122 cells harboring EML4-ALK E13;A20 mutant incubated for 72 hrs by Cell titer blue assay; format: functional, cell-based; details: NCI-H3122, 72 h

T1 sequence (Q9UM73 whole entry): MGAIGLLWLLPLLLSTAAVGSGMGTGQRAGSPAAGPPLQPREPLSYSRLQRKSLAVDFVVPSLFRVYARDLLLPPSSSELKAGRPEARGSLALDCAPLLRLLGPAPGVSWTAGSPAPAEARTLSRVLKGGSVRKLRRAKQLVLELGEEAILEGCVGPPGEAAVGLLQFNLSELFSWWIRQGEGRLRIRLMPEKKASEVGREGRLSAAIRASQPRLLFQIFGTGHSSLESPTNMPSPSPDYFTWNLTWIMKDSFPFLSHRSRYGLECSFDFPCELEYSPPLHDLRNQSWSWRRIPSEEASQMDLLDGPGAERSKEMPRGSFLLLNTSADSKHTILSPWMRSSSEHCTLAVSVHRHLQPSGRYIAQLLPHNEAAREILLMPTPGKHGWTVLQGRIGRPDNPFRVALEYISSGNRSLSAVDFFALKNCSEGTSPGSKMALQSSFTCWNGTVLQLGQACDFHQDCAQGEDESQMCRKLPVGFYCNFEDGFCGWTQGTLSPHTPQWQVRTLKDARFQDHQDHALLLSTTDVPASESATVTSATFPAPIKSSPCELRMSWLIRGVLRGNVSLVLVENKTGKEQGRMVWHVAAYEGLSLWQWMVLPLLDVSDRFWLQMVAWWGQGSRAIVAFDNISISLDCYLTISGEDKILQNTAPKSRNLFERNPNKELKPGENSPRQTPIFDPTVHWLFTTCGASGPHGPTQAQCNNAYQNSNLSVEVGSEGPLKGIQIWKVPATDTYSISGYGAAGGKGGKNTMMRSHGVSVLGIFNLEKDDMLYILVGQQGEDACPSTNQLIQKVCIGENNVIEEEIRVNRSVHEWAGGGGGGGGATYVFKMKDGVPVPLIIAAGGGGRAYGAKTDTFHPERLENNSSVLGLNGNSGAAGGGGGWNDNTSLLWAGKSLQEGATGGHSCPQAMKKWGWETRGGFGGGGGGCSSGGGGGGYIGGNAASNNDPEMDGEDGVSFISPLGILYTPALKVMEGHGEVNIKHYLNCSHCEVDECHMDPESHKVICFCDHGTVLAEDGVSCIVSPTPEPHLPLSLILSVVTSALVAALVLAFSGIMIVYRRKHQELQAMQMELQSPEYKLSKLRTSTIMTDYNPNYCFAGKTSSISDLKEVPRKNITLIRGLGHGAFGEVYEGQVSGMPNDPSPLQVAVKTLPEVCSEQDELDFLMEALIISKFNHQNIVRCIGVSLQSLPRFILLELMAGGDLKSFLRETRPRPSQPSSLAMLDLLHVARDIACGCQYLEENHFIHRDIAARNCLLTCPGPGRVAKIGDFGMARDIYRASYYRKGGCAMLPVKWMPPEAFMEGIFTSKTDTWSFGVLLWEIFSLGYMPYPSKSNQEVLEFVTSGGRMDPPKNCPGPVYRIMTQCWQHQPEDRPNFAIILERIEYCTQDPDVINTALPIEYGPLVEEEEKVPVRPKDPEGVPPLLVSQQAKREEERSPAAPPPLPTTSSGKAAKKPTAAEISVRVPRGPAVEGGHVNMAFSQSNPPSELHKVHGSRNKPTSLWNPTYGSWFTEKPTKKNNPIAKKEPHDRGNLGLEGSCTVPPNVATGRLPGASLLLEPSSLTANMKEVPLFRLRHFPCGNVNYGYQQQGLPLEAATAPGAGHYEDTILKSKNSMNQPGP
Sequence of Vascular endothelial growth factor receptor 2 (P35968 whole entry): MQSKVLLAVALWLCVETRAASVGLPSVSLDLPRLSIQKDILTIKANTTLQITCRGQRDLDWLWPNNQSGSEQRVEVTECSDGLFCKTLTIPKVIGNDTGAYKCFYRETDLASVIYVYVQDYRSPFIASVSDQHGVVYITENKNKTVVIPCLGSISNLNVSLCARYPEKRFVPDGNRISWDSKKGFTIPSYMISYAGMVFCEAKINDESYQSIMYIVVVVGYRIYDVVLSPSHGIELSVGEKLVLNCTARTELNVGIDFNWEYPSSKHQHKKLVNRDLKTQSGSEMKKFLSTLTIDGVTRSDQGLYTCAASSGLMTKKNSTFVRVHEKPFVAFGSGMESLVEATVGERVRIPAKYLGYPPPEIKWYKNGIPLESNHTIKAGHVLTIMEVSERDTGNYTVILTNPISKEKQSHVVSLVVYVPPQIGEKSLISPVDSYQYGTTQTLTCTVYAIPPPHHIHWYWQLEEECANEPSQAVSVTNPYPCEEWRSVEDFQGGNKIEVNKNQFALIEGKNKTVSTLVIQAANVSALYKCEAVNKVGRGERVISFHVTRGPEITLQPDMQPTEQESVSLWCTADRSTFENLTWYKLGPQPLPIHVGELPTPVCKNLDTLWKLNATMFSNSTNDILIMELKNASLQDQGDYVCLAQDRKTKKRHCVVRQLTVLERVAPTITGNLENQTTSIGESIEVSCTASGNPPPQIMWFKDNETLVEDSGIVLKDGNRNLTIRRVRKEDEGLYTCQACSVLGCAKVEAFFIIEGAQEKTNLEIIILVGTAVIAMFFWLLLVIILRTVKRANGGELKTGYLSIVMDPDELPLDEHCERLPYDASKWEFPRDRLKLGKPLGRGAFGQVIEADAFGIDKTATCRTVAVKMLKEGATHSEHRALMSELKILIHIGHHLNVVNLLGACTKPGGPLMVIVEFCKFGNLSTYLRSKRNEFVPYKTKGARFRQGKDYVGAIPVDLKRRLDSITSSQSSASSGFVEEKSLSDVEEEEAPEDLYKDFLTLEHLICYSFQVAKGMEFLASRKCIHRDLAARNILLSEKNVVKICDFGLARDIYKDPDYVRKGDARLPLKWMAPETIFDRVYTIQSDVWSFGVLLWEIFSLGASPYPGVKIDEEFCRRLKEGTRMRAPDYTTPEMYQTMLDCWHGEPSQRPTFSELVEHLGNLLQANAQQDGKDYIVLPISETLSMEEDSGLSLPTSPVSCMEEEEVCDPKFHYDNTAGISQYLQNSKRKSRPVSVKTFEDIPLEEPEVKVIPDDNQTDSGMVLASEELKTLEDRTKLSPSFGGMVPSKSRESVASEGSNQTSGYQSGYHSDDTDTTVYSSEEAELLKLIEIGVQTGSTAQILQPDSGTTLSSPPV

CCc1cc2c(cc1N1CCN(C3COC3)CC1)C(C)(C)c1[nH]c3cc(C#N)ccc3c1C2=O
IC50 [1]: > 5000 nM

COc1cc(N2CCC(N)CC2)ccc1Nc1ncc(Cl)c(-c2c[nH]c3ccccc23)n1
IC50 (SH-SY5Y): 1.7 nM
IC50 (IMR-32): 2.8 nM
Ki [2]: 0.75 nM

Cc1nn(C)c2c1Cc1cnc(N)c(c1)O[C@H](C)c1cc(F)ccc1C(=O)N(C)C2
logD (physchem): 2.2

CCc1cc2c(cc1N1CCC(N3CCOCC3)CC1)C(C)(C)c1[nH]c3cc(C#N)ccc3c1C2=O [ALECTINIB]
IC50 (NCI-H3122 [3]): 9 nM

C[C@@H]1CN(C(=O)c2ccc(NC(=O)c3cc(O[C@H](C)c4c(Cl)ccc(F)c4Cl)c(N)nn3)cc2)C[C@H](C)N1 [ENSARTINIB]
Ratio IC50 (NCI-H3122 [4]): 10
IC50 [5]: < 0.4 nM
IC50 [6]: 0.74 nM
IC50 (NCI-H3122 [7]): 15 nM
